# Measurements: paper PMC12108424, “Genetically Modified Mesenchymal Stromal/Stem Cells as a Delivery Platform for SE-33, a Cathelicidin LL-37 Analogue: Preclinical Pharmacokinetics and Tissue Distribution in C57BL/6 Mice” (Antibiotics, 2025)
# Where no end group is shown, it is not given here.
# Tests used:
# in vivo [1] = assay: in vivo; design: species or system C57BL/6 mice
# Description: (§1) The studies were conducted on sexually mature male C57BL/6 mice with an average body weight of 20 g and an age of 8 weeks. The animals were sourced from the “Andreevka”, branch of the Scientific Center of Biomedical Technologies of the Russian Federal Medical and Biological Agency (Russia). The mice underwent a 14-day acclimatization period. The animals were housed in individually ventilated polysulfone cages ISO RAIR 4 × 8 (LabProducts, Aberdeen, WA, USA) with Rehofix MK2000 corn cob bedding (J. Rettenmaier and Söhne GmbH, Rosenberg, Germany). The animal housing environment followed a 12-h light/dark cycle with an ad libitum access to water and standard laboratory feed. The group assignment was based on body weight, ensuring a no more than 10% deviation from the average group weight. All experimental procedures were approved by the Local Ethics Committee (LEC) of the Federal State Budgetary Educational Institution of Higher Education “Privolzhsky Research Medical University” Ministry of Health of the Russian Federation (Protocol No. 06, dated 29 April 2022) and adhered to the guidelines for the care and use of laboratory animals.
# (§2) Immediately prior to administration, WJ-MSC-SE33 cells were resuspended in a saline solution (0.9% NaCl). The mice were divided into groups (n = 48) and fasted for 8 h before intravenous injection. The injection volume was calculated based on body weight. Single-dose administrations were 1 × 10^5 cells/mouse (0.5 × 10^7 cells/kg), 2.5 × 10^5 cells/mouse (1.25 × 10^7 cells/kg), and 5 × 10^5 cells/mouse (2.5 × 10^7 cells/kg) (Figure 4B). Repeated administrations were conducted on days 1, 3, and 5 at a dose of 1 × 10^5 cells/mouse (Figure 4B).
# (§3) The 0 h time point represents samples obtained from animals prior to WJ-MSC-SE33 injection (pre-dose baseline). SE-33 concentrations at baseline were established as 0 μg/mL since the peptide was undetectable (<LLOQ) in all pre-dose samples, confirming the absence of endogenous expression. Blood samples were collected into tubes without an anticoagulant and centrifuged at 3000 rpm for 15 min at room temperature. Then, serum samples were isolated and placed in cryovials. Samples of peripheral tissues (lungs, liver, and spleen) were collected at similar time points. Blood and tissue samples were stored at −79 °C.
# (§4) Thawed mouse serum was centrifuged at 12,000 rpm for 30 min using a MiniSpin centrifuge (Eppendorf, Hamburg, Germany). The supernatant was collected and diluted 20-fold with 20 mM TrisHCl (pH 7.8). For peripheral tissue samples, 100 mg of thawed tissue was weighed using Sartorius CPA225D scales (Sartorius, Göttingen, Germany) and homogenized in 1.6 mL of acidified ethanol (0.5 mL HCl in 1000 mL ethanol) using a Heidolph Diax 100 homogenizer (Heidolph Instruments, Schwabach, Germany) at 25,000 rpm on ice for 1 min. The homogenate was centrifuged at 12,000 rpm for 30 min. The supernatant was collected and diluted 20-fold with 20 mM Tris-HCl (pH 7.8).
# (§5) To construct a protein that specifically binds to the SE-33 peptide ([…]), a complementary sequence with a high affinity to the SE-33 was calculated using the Antimicrobial Peptide Database APD3 [94, 95]. The sequence was cloned into a plasmid and expressed in E. coli strain BL21(DE3). The protein was then isolated and purified using a Ni-NTA column. Purified protein was conjugated with Epoxy-activated Sepharose 6B, creating a sorbent (Epoxy-Protein Sepharose) with a binding capacity of 240 μg/mL for the SE-33 peptide.
# (§6) A column containing 5 mL of Epoxy-Protein Sepharose was equilibrated with 20 mM TrisHCl (pH 7.8). The sample was applied to the column via a 2 mL loop, followed by washing with 25 mL of 20 mM TrisHCl (pH 7.8). The SE-33 peptide was eluted with 5 mL of 75 mM NaCl in 20 mM TrisHCl (pH 7.8) without fractionation. The eluate enriched with the SE-33 peptide was subjected to solid-phase extraction. […]
# in vivo [2] = assay: in vivo; design: species or system C57BL/6 mice; settings: iv
# Description: as §1, §2
# as §3, with “Blood samples were collected from the subclavian artery at 4, 8, 12, 16, 20, 24, 36, and 48 h post-administration (n = 6 animals/time point) (Figure 1B). […] The 0” for “The 0”
# as §4, §5
# as §6, with “fractionation.” for “fractionation. The eluate enriched with the SE-33 peptide was subjected to solid-phase extraction.”
# [3] = design: species or system C57BL/6 mice; settings: mouse, in vivo
# Description: The tissue availability and distribution of SE-33 peptide were further assessed using the following parameters: fT: tissue penetration factor. This parameter reflects the ratio of drug exposure in tissues relative to plasma or serum and is used to assess antimicrobial drug distribution at the target site and to guide therapy selection. In this study, fT was calculated using the following equation:(4) fT=AUC0–t(tissue)/AUC0–t(serum) This approach, commonly applied in evaluating drug distribution within extravascular compartments, particularly for antimicrobial agents, is consistent with its established definition in pharmacokinetics as the tissue-to-plasma AUC ratio [99, 100].
# fungi and yeast = system: fungi and yeast; design: method as in PMID 38391576, doi:10.1134/S1068162019020158, PMID 40072070; settings: in vitro; cited from earlier work
# S. aureus = system: S. aureus; design: method as in PMID 38391576, doi:10.1134/S1068162019020158, PMID 40072070; settings: in vitro; cited from earlier work
# E. coli = system: E. coli; design: method as in PMID 38391576, doi:10.1134/S1068162019020158, PMID 40072070; settings: in vitro; cited from earlier work
sequence,measurement,setting,value
SETRPVLNRLFDKIRQVRKEFGKIKEKSRKFM [SE-33],AUC(0-t),"in vivo [1]; male, C57BL/6, mouse, iv",2010 ng·h/mL
same,Tmax,"in vivo [1]; male, C57BL/6, mouse, iv",8 h
same,Cmax,"in vivo [1]; male, C57BL/6, mouse, iv, Cmax",142 ng/mL
same,MRT,"in vivo [1]; male, C57BL/6, mouse, iv, MRT0–∞",10.4 h
same,half-life,"in vivo [1]; male, C57BL/6, mouse, iv, T1/2 (elimination half-life)",4.8 h
same,persistence of the peptide in tissues,in vivo [1]; mouse,up to 48 h
same,SE-33 concentration at 8 h,"in vivo [1]; mouse, iv",0.043 μg/mL
same,SE-33 level in liver exceeding that in the lungs,"in vivo [1]; mouse, iv",4 fold
same,SE-33 levels within 2 h post-intravenous administration,"in vivo [1]; mouse, iv",no detectable SE-33 levels
same,AUC,"in vivo [2]; male, C57BL/6, mouse",8210 ng·h/mL
same,AUC(0-inf),"in vivo [2]; male, C57BL/6, mouse",8050 ng·h/mL
same,Cmax,"in vivo [2]; male, C57BL/6, mouse",233 ng/mL
same,Tmax,"in vivo [2]; male, C57BL/6, mouse",8 h
same,half-life,"in vivo [2]; male, C57BL/6, mouse",23.1 h
same,MRT,"in vivo [2]; male, C57BL/6, mouse, MRT4–24",34.2 h
same,MRT,"in vivo [2]; male, C57BL/6, mouse, MRT4–∞",31.4 h
same,Tmax,in vivo [2]; mouse,4 h
same,increase of fT relative to the highest single dose,[3],20.0%
same,rise of fT,[3],25.0%
same,minimum inhibitory concentration (MIC),fungi and yeast,31.2 to 1024 µg/mL
same,minimum inhibitory concentration (MIC),S. aureus,12.5 µg/mL
same,minimum bactericidal concentration (MBC),E. coli,20 µg/mL
